# Results reported in US6844343B1, “N-substituted 4-aminopteridines, synthesis and use thereof as pharmaceutical agent” (Vasopharm Biotech GmbH, priority 1999, dated 2005).
# Tested on: NO synthase
# Experiment: not given
# Details: literature reports on BH4 analogues; cited from earlier work
row,Molecule,effect on NO production / NO synthase
1,"CC1CNc2nc(N)[nH]c(=O)c2C1 (centres unmarked) [5-deaza-6-methyl-5,6,7,8-tetrahydropterin]",weak inhibition
2,"CC1Nc2nc(N)[nH]c(=O)c2NC1C (centres unmarked) [6,7-dimethyl-5,6,7,8-tetrahydropterin]",no significant effects
3,"CC1CNc2nc(N)[nH]c(=O)c2N1 (centres unmarked) [6-methyl-5,6,7,8-tetrahydropterin]",able to partly replace the natural cofactor
4,CC(O)C(O)C1CNc2c(nc(N)[nH]c2=O)N1 (centres unmarked) [7-R/S-BH4],able to partly replace the natural cofactor
5,"C[C@@H](O)[C@@H](O)[C@H]1CNc2nc(N)[nH]c(=O)c2N1 [Example 6S-BH4, 6S-BH4]",able to partly replace the natural cofactor
6,C[C@H](O)[C@H](O)C1=Nc2c(nc(N)[nH]c2=O)NC1 [dihydrobiopterin],able to partly replace the natural cofactor
7,Nc1nc2c(c(=O)[nH]1)N=C(CNc1ccc(C(=O)N[C@@H](CCC(=O)O)C(=O)O)cc1)CN2 [dihydrofolic acid],no significant effects
8,Nc1nc2c(c(=O)[nH]1)N=C([C@H](O)[C@H](O)CO)CN2 [dihydroneopterin],no significant effects
9,Nc1nc2ncc(CNc3ccc(C(=O)N[C@@H](CCC(=O)O)C(=O)O)cc3)nc2c(=O)[nH]1 [folic acid],no significant effects

# Tested on: purified NO synthase from pig cerebellum or from pig liver
# Experiment: Activity assay of purified NOS (3H-L-arginine to 3H-L-citrulline conversion)
# Type: biochemical
# Details: substance 100 μM, in the presence of 2 μM tetrahydrobiopterin, 15 min at 37° C.
# Description: The inhibition of the activity of purified nitric oxide synthase (NOS) by compounds of the general formula I can be determined as follows.
# In this activity assay the L-citrulline which is a coproduct of the formation of NO by purified NOS is quantitatively measured. ^3H-radiolabeled L-arginine is employed as substrate of the enzyme reaction and is converted into ^3H-L-citrulline and NO. After completion of the enzyme incubation, generated L-citrulline is removed from unused L-arginine by ion exchange chromatography from the reaction mixture; the ^3H activity measured by liquid scintillation then is corresponds to the amount of L-citrulline, which is a direct measure of the activity of NOS.
# The basic medium for carrying out the enzyme reaction is TE buffer (triethanolamine, EDTA, pH 7.0).
# The final volume of each incubation is 100 μl. The reaction mixture is obtained by mixing the following 6 components on ice: • 1. “REA-Mix” (pH 7.0) which contains triethanolamine, calcium chloride, magnesium chloride, EDTA, L-arginine, calmodulin and flavin adenine dinucleotide (FAD); • 2. freshly prepared stock solution of β-nicotinamide adenine dinucleotide phosphate, reduced form (NADPH); • 3. (6R)-5,6,7,8-tetrahydro-L-biopterin dihydro-chloride stock solution (BH4) or —for experiments without BH4-instead TE buffer; • 4. purified NO synthase from pig cerebellum or from pig liver; • 5.
# After mixing of the components on ice, the reaction mixture was immediately incubated in a water bath at 37° C. for 15 minutes. […] After this incubation time, the reaction was stopped by addition of 900 μl of ice-cold “stop buffer” (20 mM sodium acetate, 2 mM EDTA, pH 5.5), and the mixture (total volume now 1.0 ml) was placed on ice. To remove the unreacted ^3H-L-arginine, the mixture was loaded onto an ion exchange column with 0.8 ml of Dowex AG 50 WX-8 (100-200 mesh) which has previously been washed and equilibrated with 2 ml of stop buffer. After loading of the sample, the column was eluted twice with 1 ml of water each time. The flow-through of the sample and the eluate were collected in scintillation vessels and […] (total volume 3 ml). 9 ml of scintillator solution were added to the 3 ml of aqueous measurement solution, and the homogeneous mixture was measured in a Tricarb 2500 TR (Packard) liquid scintillation counter for 1 minute for each sample. […] Each substance was tested for an antagonistic effect in a concentration of 100 μM in the presence of 2 μM tetrahydrobiopterin, and for an agonistic effect on NOS in the absence of tetrahydrobiopterin.
# All incubations were carried out on triplicates. Each experiment was repeated three times with different enzyme preparations.
row,Molecule,Remaining activity (% of Vmax)
1,2-amino-4-(4-methylpiperazin-1-yl)-6-(4-chloro-phenyl)pteridine hemihydrate [Example 36],64 ± 9 % of Vmax
2,2-amino-4-(4-methylpiperazin-1-yl)-6-(4-methoxy-phenyl)pteridine hemihydrate [Example 37],84 ± 5 % of Vmax
3,2-amino-4-(4-methylpiperazin-1-yl)-6-phenyl-pteridine hemihydrate [Example 35],83 ± 1 % of Vmax
4,"2-amino-4-(morpholin-4-yl)-6-(4-methoxyphenyl)-5,6,7,8-tetrahydropteridine hydrochloride hemi-hydrate [Example 40]",66 ± 14 % of Vmax
5,"2-amino-4-(morpholin-4-yl)-6-phenyl-5,6,7,8-tetra-hydropteridine dihydrochloride hemihydrate [Example 42]",51 ± 3 % of Vmax
6,"CN(C)c1nc(N)nc2ncc(-c3ccccc3)nc12 [Example 11, 2-amino-4-(dimethylamino)-6-phenylpteridine]",92 ± 11 % of Vmax
7,"Cc1ccc(-c2cnc3nc(N)nc(N(C)C)c3n2)cc1 [Example 12, 2-amino-4-(dimethylamino)-6-(4-methylphenyl)-pteridine]",15 ± 7 % of Vmax
8,"COc1ccc(-c2cnc3nc(N)nc(N(C)C)c3n2)cc1 [Example 13, 2-amino-4-(dimethylamino)-6-(4-methoxyphenyl)-pteridine]",13 ± 4 % of Vmax
9,"CCN(CC)c1nc(N)nc2ncc(-c3ccccc3)nc12.O [Example 15, 2-amino-4-(diethylamino)-6-phenylpteridine hydrate]",75 ± 3 % of Vmax
10,"CCN(CC)c1nc(N)nc2ncc(-c3ccc(Cl)cc3)nc12.O.O [Example 16, 2-amino-4-(diethylamino)-6-(4-chlorophenyl)-pteridine dihydrate]",42 ± 10 % of Vmax
11,"CCN(CC)c1nc(N)nc2ncc(-c3ccc(OC)cc3)nc12.O [Example 17, 2-amino-4-(diethylamino)-6-(4-methoxyphenyl)-pteridine hydrate]",2 ± 0.1 % of Vmax
12,"CCN(CC)c1nc(N)nc2ncc(-c3ccc(OC)c(OC)c3)nc12.O [Example 18, 2-amino-4-(diethylamino)-6-(3,4-dimethoxyphenyl)-pteridine hydrate]",23 ± 4 % of Vmax
13,"Nc1nc(N(Cc2ccccc2)Cc2ccccc2)c2nc(-c3ccccc3)cnc2n1.O.O [Example 19, 2-amino-4-(dibenzylamino)-6-phenylpteridine dihydrate]",0 ± 0.05 % of Vmax
14,"CCCN(CCC)c1nc(N)nc2ncc(-c3ccccc3)nc12.O.O.O [Example 23, 2-amino-4-(di-n-propylamino)-6-phenylpteridine trihydrate]",77 ± 16 % of Vmax
15,"CCCN(CCC)c1nc(N)nc2ncc(-c3ccc(Cl)cc3)nc12.O.O.O [Example 24, 2-amino-4-(di-n-propylamino)-6-(4-chlorophenyl)-pteridine trihydrate]",7 ± 4 % of Vmax
16,"CCCN(CCC)c1nc(N)nc2ncc(-c3ccc(OC)cc3)nc12.O [Example 25, 2-amino-4-(di-n-propylamino)-6-(4-methoxyphenyl)-pteridine hydrate]",25 ± 12 % of Vmax
17,"CCCN(CCC)c1nc(N)nc2ncc(-c3ccc(OC)c(OC)c3)nc12.O [Example 26, 2-amino-4-(di-n-propylamino)-6-(3,4-dimethoxy-phenyl)pteridine hydrate]",0 % of Vmax
18,"Nc1nc(N2CCOCC2)c2nc(-c3ccccc3)cnc2n1.O [Example 27, 2-amino-4-(morpholin-4-yl)-6-phenylpteridine hydrate]",41 ± 8 % of Vmax
19,"Cl.Nc1nc(N2CCOCC2)c2nc(-c3ccc(Cl)cc3)cnc2n1.O [Example 28, 2-amino-4-(morpholin-4-yl)-6-(4-chlorophenyl)-pteridine hydrochloride hydrate]",3 ± 1.5 % of Vmax
20,"COc1ccc(-c2cnc3nc(N)nc(N4CCOCC4)c3n2)cc1OC.O.O.O [Example 30, 2-amino-4-(morpholin-4-yl)-6-(3,4-dimethoxy-phenyl)pteridine trihydrate]",5 ± 3 % of Vmax
21,"Nc1nc(N2CCCCC2)c2nc(-c3ccccc3)cnc2n1.O.O [Example 31, 2-amino-4-(piperidin-1-yl)-6-phenylpteridine dihydrate]",0 ± 0.05 % of Vmax
22,"Nc1nc(N2CCCCC2)c2nc(-c3ccc(Cl)cc3)cnc2n1.O.O [Example 32, 2-amino-4-(piperidin-1-yl)-6-(4-chlorophenyl)-pteridine dihydrate]",3 ± 1 % of Vmax
23,"COc1ccc(-c2cnc3nc(N)nc(N4CCN(C)CC4)c3n2)cc1OC.O.O [Example 38, 2-amino-4-(4-methylpiperazin-1-yl)-6-(3,4-di-methoxyphenyl)pteridine dihydrate]",99 ± 16 % of Vmax
24,"COc1ccc(-c2cnc3nc(N)nc(N4CCCC4)c3n2)cc1.O.O [Example 39, 2-amino-4-(pyrrolidin-1-yl)-6-(4-methoxyphenyl)-pteridine dihydrate]",30 ± 5 % of Vmax
25,"COc1ccc(C2CNc3nc(N)nc(N4CCOCC4)c3N2)cc1OC.Cl.O (centres unmarked) [Example 41, 2-amino-4-(morpholin-4-yl)-6-(3,4-dimethoxy-phenyl)-5,6,7,8-tetrahydropteridine hydrochloride hydrate]",68 ± 11 % of Vmax
26,"Cl.Cl.Cl.Nc1nc2c(c(N3CCCCC3)n1)NC(c1ccc(Cl)cc1)CN2.O (centres unmarked) [Example 43, 2-amino-4-(piperidin-1-yl)-6-(4-chlorophenyl)-5,6,7,8-tetrahydropteridine trihydrochloride hydrate]",0 % of Vmax
